We go through 61 molecules from a melting point compilation (Tetko et al.; mined from patent text by program, amines drawn as free bases though some values may be those of a salt).

As to `COc1c(-c2ccc3cc(NS(C)(=O)=O)ccc3c2)cc(-n2ccc(=O)[nH]c2=O)cc1C(C)(C)CO`, the melting point was 256 to 257 °C.
The value for `O=c1c2c([nH]c3ccccc13)C(C1Cc3ccccc3O1)N(c1ncc(-c3ccccn3)cn1)C2` (stereo unspecified) was 201 to 203 °C.
The value for `CS(=O)(=O)c1ccc([C@@H](CC2CCC(=O)CC2)C(=O)O)cc1Cl` was 129 to 131 °C.
Next, `COc1cc(C(=O)c2ccc(C(F)(F)F)cc2)cc([N+](=O)[O-])c1OC`: 115 °C.
`CC(=O)N(c1cccc(Br)c1)c1ncnc2ccc(N3C(=O)C=CC3=O)cc12` came in with a melting point of 174 to 175 °C.
Next, `Cc1nc2cc(NC(=O)c3cc4cc(F)ncc4n3Cc3cccc(F)c3)ccc2s1`: 193 to 195 °C; `CC(C)c1ccc2oc(=O)c(NC(=O)Nc3ccc(F)cc3F)c(-c3ccc(F)cc3)c2c1`: 216 to 217 °C; `CCC1(c2ccc(COc3ccc(CO)c(CO)c3)s2)OCCO1`: 78 to 80 °C.
The value for `CCOCN1C(C)=C(C(=O)O)C(c2cccc(Cl)c2Cl)C(C(=O)OC)=C1C` (single isomer, unassigned; (+)) was 129 to 131 °C; that for `CCCC(Cc1ccc(OCCN2CCOCC2)cc1)(C(=O)NO)S(=O)(=O)c1ccc(OC)cc1` (stereo unspecified) was 101 °C; that for `COc1ccc(-c2cc(=Nc3c(C)cc(C)cc3C)n(C)c3nnnn23)cc1OC` was 198 to 200 °C.
The value for `Cc1cccnc1NC(=O)C(C)(C)C` was 90 to 92 °C; that for `CC(=O)c1c(C)nc2ccccc2c1NCc1cccc(Br)c1` was 109 °C.
For the molecule `COc1ccc(C)cc1NC(=O)Nc1ccc(N2CCN(C(=O)Nc3cc(OCCO)ccc3Cl)CC2)nc1`, the melting point was in the range of 132 to 134 °C.
Next, `CCCCc1ncc(C(=O)OC)c(=O)n1Cc1ccc(-c2ccccc2C(=O)O)cc1`: 166 to 168 °C; `Cc1ccc(S(=O)(=O)N(c2ccc(Cl)cc2C(=O)O)C(C)C)cc1`: 175 to 176 °C.
`N#Cc1cccc2c1C(=O)C(O)=C(O)C2=O` had a melting point of 305 to 312 °C.
Molecule `CC(=CN(C)C)C(=O)c1cccc(Cl)c1` registered a melting point of 206 to 208 °C.
In the case of `CCON=C(CC)C1=C(O)CC(c2ccc3c(c2)NC(=O)C(C)O3)CC1=O` (stereo unspecified), the melting point was in the range of 144 to 146 °C.
Consider `OC(Nc1cccc(C(F)(F)F)c1)c1cccnc1` (stereo unspecified), for which the melting point was 102 °C.
The value for `COC(=O)C1Cc2sc3c(c2C1)C(c1ccccc1Cl)=NCC(N(C)C1(C)OCCO1)=N3` (stereo unspecified) was 166 to 168 °C; that for `COc1cc2c(cc1OC)-c1c(-c3ccccc3)c(-c3cc(C)c(O)c(C)c3)c(C)n1CC2` was 210 to 214 °C; that for `CC(C)c1nc(-c2ccccc2)c(F)c(-c2ccc(F)cc2)c1C=O` was 136 to 137 °C.
The molecule `OCCOCc1nnc2n1-c1ccc(Cl)cc1C(c1ccccc1)=NC2` came in with a melting point of 162 to 164 °C.
`O=c1[nH]c2ccccc2n1CC1CCCN(CC(O)C2COc3ccccc3O2)C1` (stereo unspecified) gave a melting point of 154 °C.
Next, `CC(=O)Oc1cccc2c1C(=O)c1c(OC(C)=O)cc(-c3nc4ccccc4n3C)cc1C2=O`: 279 to 280 °C; `CC(C)(C)OC(=O)N[C@@H](Cc1ccc(NC(=O)OCC2c3ccccc3-c3ccccc32)cc1)C(=O)OCc1ccccc1`: 186 to 187 °C.
Next, `CCOC(=O)CCCn1nc(-c2c(-c3ccccc3)nn3ccccc23)ccc1=O`: 71 to 75 °C; `Cc1cc(C2=NNC(=O)Cc3cc4c(cc32)OCO4)ccc1N`: 164 to 166 °C.
Turning to `CN(C)NC(=O)c1sc(Nc2ccccc2)c2c1CCc1cnoc1-2`, the melting point fell in the range of 179 to 180 °C.
`CCCc1ccc(-c2c(-c3ccc(S(C)(=O)=O)cc3)cnn(CC(F)(F)F)c2=O)cc1` gave a melting point of 64 to 66 °C.
In turn, `COc1ccccc1N1CCN(CC(C(=O)NC(C)(C)C)c2ccccn2)CC1` (stereo unspecified) had a melting point of 138 to 139 °C.
Next, `O=C(C1CN(S(=O)(=O)c2ccc3cc(Br)ccc3c2)CCN1C(=O)C1CCN(c2ccncc2)CC1)N1CCSCC1` (stereo unspecified): 250 to 258 °C.
Next, `O=C1NC(=S)NC(=O)C1=Cc1cc(Br)cs1`: 230 °C; `COC(=O)C(C)c1ccc(OCCNC(=O)C2Cc3ccccc3N2S(=O)(=O)c2ccc(-c3cccc(C(F)(F)F)c3)cc2)cc1` (stereo unspecified): 71 to 74 °C.
`Cc1cccc(NC(=O)NC(CC(=O)O)C(=O)N(CC(=O)OC(C)(C)C)c2ccccc2)c1` (racemic) gave a melting point of 198 °C.
Next, `CSc1nn2c(N)cc(C)nc2c1S(=O)(=O)c1ccc(I)cc1`: above 230 °C; `Cc1nnc(-c2ccc3occ(-c4ccc(O)cc4)c3c2)o1`: 226 to 227 °C.
Consider `Cc1cc(CCl)nc(Nc2ccccc2)n1`, for which the melting point lay in the range of 100 to 101 °C.
For `CCCc1c(C(C)C)nn2ccccc12`, the melting point was 41 to 42 °C.
On to `CCCc1c(C(=O)c2ccc(OS(=O)(=O)c3ccc(C)cc3)cc2)c2ccccn2c1C(C)=O`, for which the melting point lay within 125 to 126 °C.
Turning to `COc1ccc2c(c1)CCC1CCNC(=O)C(CCl)=C21` (stereo unspecified), the melting point lay within 135 to 138 °C.
Next, `COc1ccc2oc(-c3csc(C)n3)cc2c1`: 136 to 137 °C.
Consider `NC(=O)NC(=O)c1ccncc1`, for which the melting point lay in the range of 245 to 247 °C.
Next, `CSC1CC(c2cc(Cl)c(C)c(Cl)c2)=NNC1=O` (stereo unspecified): 112 to 115 °C; `CNN(NC)C(=S)Oc1cccnc1C(=O)OC`: 74 to 75 °C.
In turn, `O=c1nc(-c2cccc(CN3CCC(Cc4ccccc4)CC3)n2)sc2ccccc12` returned a melting point of 151 to 153 °C.
The molecule `O=C1C=CC2(C=C1)CC(=O)N2OCc1ccccc1` gave a melting point of 77 to 79 °C.
Next, `N=C(N)NCCc1ccc(OCCC(c2ccc(Cl)cc2)(c2ccc(Cl)cc2)c2ccc(Cl)cc2)cc1`: 146 to 150 °C.
In turn, `CSC[C@H]1NC(=O)[C@@H](Cc2ccccc2)NC1=O` yielded a melting point of 246 to 247 °C.
Next, `COC(=O)c1cc2c(cc1N)OCCO2`: 73 to 77 °C.
Next, `O=C(c1ccc(O)cc1O)c1ccccc1F`: 109 to 111 °C.
The molecule `O=C(O)Cc1cccc([N+](=O)[O-])c1[N+](=O)[O-]` gave a melting point of 209 to 215 °C.
Next, `CC(=O)SCCc1ccc(C=O)cc1`: 35 °C; `N#Cc1ccc(-c2ccc(Cl)cc2)cc1`: 128 to 130 °C; `CCCn1c(=O)c2c(nc(C=Cc3ccc(S(=O)(=O)O)cc3)n2C)n(CCC)c1=O`: above 270 °C.
Next, `N#Cc1c(C(F)(F)F)[nH]c2ccc(Br)cc12`: 188 to 192 °C; `Cc1cc(C)n(C)c1C(=O)c1ccc(Cl)cc1Cl`: 96 to 98 °C.
The value for `CCN(CC)c1ccc(C2(c3c(C)n(CC)c4ccccc34)OC(=O)c3cccnc32)c(OC2CCCC2)c1` (stereo unspecified) was 120 to 125 °C; that for `COc1cc2oc(=O)c3c(c2cc1OC)CCN(Cc1ccc(Cl)cc1)C3` was 173 to 175 °C.
`CS(=O)(=O)c1ccc(-c2ccc(I)n2-c2ccc(F)cc2)cc1` displayed a melting point of 174 to 176 °C.

As usually defined, the melting point is the temperature of the solid-liquid transition.
